Test results from patent US20250340591A1, “COMPOSITION FOR PREVENTING OR TREATING INFLAMMATORY BOWEL DISEASE CONTAINING NOVEL COMPOUND” (ANYGEN CO., LTD., priority 2021, published 2025).
Square brackets hold non-standard residues; d marks the D form. Peptide text beside a SMILES is read from it. * marks the point of attachment. His(Trt) = N[C@@H](Cc1cn(C(c2ccccc2)(c2ccccc2)c2ccccc2)cn1)C(=O)O; dHis(Trt) = N[C@H](Cc1cn(C(c2ccccc2)(c2ccccc2)c2ccccc2)cn1)C(=O)O; His(τ-CHPh2) = N[C@@H](Cc1cn(C(c2ccccc2)c2ccccc2)cn1)C(=O)O; Tyr(3-NO2) = N[C@@H](Cc1ccc(O)c([N+](=O)[O-])c1)C(=O)O; Biotin = O=C1N[C@H]2[C@H](CS[C@H]2CCCCC(=O)*)N1; dPhe(4-CF3) = N[C@H](Cc1ccc(C(F)(F)F)cc1)C(=O)O; dPhe(4-Me) = Cc1ccc(C[C@@H](N)C(=O)O)cc1; d2Nal = N[C@H](Cc1ccc2ccccc2c1)C(=O)O; Lauroyl = CCCCCCCCCCCC(=O)*; Octanoyl = CCCCCCCC(=O)*

molecular target: T1, GPR39 (Homo sapiens, UniProt O43194); assay: luciferase assay system (SRE luciferase reporter gene, CV-1 cells expressing GPR39); assay type: cell-based; parameters: expressed in transfected cells; host or cells: CV-1 fibroblast cell line (Korea Cell Line Bank), adenoviral transduction at 50 MOI
T1 sequence (O43194 1-453): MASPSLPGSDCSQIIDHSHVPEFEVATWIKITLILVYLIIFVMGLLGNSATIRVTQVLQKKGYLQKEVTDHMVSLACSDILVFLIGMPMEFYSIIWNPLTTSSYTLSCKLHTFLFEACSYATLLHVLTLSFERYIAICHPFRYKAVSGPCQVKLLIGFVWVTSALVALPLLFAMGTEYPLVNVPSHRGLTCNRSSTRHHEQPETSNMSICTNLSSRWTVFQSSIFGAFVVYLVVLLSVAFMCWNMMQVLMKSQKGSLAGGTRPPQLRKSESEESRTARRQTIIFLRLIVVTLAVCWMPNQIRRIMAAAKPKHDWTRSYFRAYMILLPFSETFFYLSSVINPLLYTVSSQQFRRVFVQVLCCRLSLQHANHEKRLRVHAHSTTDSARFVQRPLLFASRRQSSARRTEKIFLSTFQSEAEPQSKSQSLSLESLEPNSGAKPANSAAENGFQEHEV

Q: How did the “ECmax (−fold induction over basal)” value turn out when `CCCCCCCC(=O)NCCCC[C@H](NC(=O)[C@@H](N)Cc1cn(-c2ccccc2)cn1)C(=O)N[C@H](Cc1ccc(C)cc1)C(=O)N[C@@H](Cc1ccc(O)cc1)C(=O)O` [HKFY-58, ((R)-2-((S)-2-((S)-2-amino-3-(1-phenyl-1H-imidazol-4-yl)propanamido)-6-octanamidohexanamido)-3-(p-tolyl)propanoyl)-L-tyrosine] was run?
A: The value was 9.12 ± 2.1 fold induction over basal.

Q: `CCCCCCCC(=O)NCCCC[C@H](NC(=O)[C@@H](N)Cc1cn(C(c2ccccc2)(c2ccccc2)c2ccccc2)cn1)C(=O)N[C@@H](Cc1ccccc1)C(=O)N[C@@H](Cc1ccc(O)cc1)C(=O)N[C@@H](CO)C(=O)N[C@@H](Cc1c[nH]cn1)C(=O)N[C@@H](CCC(N)=O)C(=O)N[C@@H](CCC(N)=O)C(=O)N[C@@H](C)C(=O)N[C@@H](CCCNC(=N)N)C(=O)N[C@@H](Cc1ccccc1)C(N)=O` [HKFY-40, (S)-2-((2S,5S,8S,11S,14S)-2-((1H-imidazol-4-yl)methyl)-14-((S)-2-amino-3-(1-trityl-1H-imidazol-4-yl)propanamido)-11-benzyl-8-(4-hydroxybenzyl)-5-(hydroxymethyl)-4,7,10,13,20-pentaoxo-3,6,9,12,19-pentaazaheptacosanamido)-N1-((S)-5-amino-1-(((S)-1-(((S)-1-(((S)-1-amino-1-oxo-3-phenylpropan-2-yl)amino)-5-guanidino-1-oxopentan-2-yl)amino)-1-oxopropan-2-yl)amino)-1,5-dioxopentan-2-yl)pentanediamide] (H-[His(Trt)]K(Octanoyl)FYSHQQARF-NH2) was tested. Which “ECmax (−fold induction over basal)” value did it give?
A: Its value is 13.4 ± 0.02 fold induction over basal.

Q: With `CCCCCCCC(=O)NCCCC[C@H](NC(=O)[C@@H](N)Cc1c[nH]c(-c2ccccc2)n1)C(=O)N[C@H](Cc1ccc(C)cc1)C(=O)N[C@@H](Cc1ccc(O)cc1)C(=O)O` [HKFY-57, ((R)-2-((S)-2-((S)-2-amino-3-(2-phenyl-1H-imidazol-4-yl)propanamido)-6-octanamidohexanamido)-3-(p-tolyl)propanoyl)-L-tyrosine] as the molecule, how does the “ECmax (−fold induction over basal)” value read?
A: The value was 8.5 ± 2.3 fold induction over basal.

Q: For `CCCCCCCC(=O)NCCCC[C@H](N)C(=O)N[C@@H](Cc1cn(C(c2ccccc2)(c2ccccc2)c2ccccc2)cn1)C(=O)N[C@@H](Cc1ccccc1)C(=O)N[C@@H](Cc1ccc(O)cc1)C(=O)O` [HKFY-55, Na-(N6-octanoyl-L-lysyl)-Nt-trityl-L-histidyl-L-phenylalanyl-L-tyrosine] (H-K(Octanoyl)[His(Trt)]FY-OH), which “ECmax (−fold induction over basal)” value is on record?
A: Its value is 16.8 ± 2.5 fold induction over basal.

Q: With `CCCCCCCCCCCC(=O)NCCCC[C@H](NC(=O)[C@@H](N)Cc1cn(C(c2ccccc2)(c2ccccc2)c2ccccc2)cn1)C(=O)N[C@@H](Cc1ccccc1)C(=O)N[C@@H](Cc1ccc(O)cc1)C(=O)O` [HKFY-25, N6-dodecanoyl-N2-(Nt-trityl-L-histidyl)-L-lysyl-L-phenylalanyl-L-tyrosine] (H-[His(Trt)]K(Lauroyl)FY-OH) as the molecule, how does the “ECmax (−fold induction over basal)” value read?
A: Its value is 7.72 ± 0.57 fold induction over basal.

Q: With `CCCCCCCC(=O)NCCCC[C@H](NC(=O)[C@@H](N)Cc1cn(C23CC4CC(CC(C4)C2)C3)cn1)C(=O)N[C@@H](Cc1ccccc1)C(=O)N[C@@H](Cc1ccc(O)cc1)C(=O)O` [HKFY-23, N2-(Nt-(adamantan-1-yl)-L-histidyl)-N6-octanoyl-L-lysyl-L-phenylalanyl-L-tyrosine] as the molecule, how does the “ECmax (−fold induction over basal)” value read?
A: The value was 15 ± 1.37 fold induction over basal.

Q: With `CCCCCCCC(=O)NCCCC[C@H](NC(=O)[C@@H](N)Cc1cn(C(c2ccccc2)c2ccccc2)cn1)C(=O)N[C@H](Cc1ccc(C)cc1)C(=O)N[C@@H](Cc1ccc(O)c([N+](=O)[O-])c1)C(=O)O` [HKFY-68, (S)-2-((R)-2-((S)-2-((S)-2-amino-3-(1-benzhydryl-1H-imidazol-4-yl)propanamido)-6-octanamidohexanamido)-3-(p-tolyl)propanamido)-3-(4-hydroxy-3-nitrophenyl)propanoic acid] (H-[His(τ-CHPh2)]K(Octanoyl)[dPhe(4-Me)][Tyr(3-NO2)]-OH) as the molecule, how does the “ECmax (−fold induction over basal)” value read?
A: Its value is 10.8 ± 1.41 fold induction over basal.

Q: For `CCCCCCCC(=O)NCCCC[C@H](NC(=O)[C@H](Cc1cn(C(c2ccccc2)(c2ccccc2)c2ccccc2)cn1)NC(=O)CCCC[C@@H]1SC[C@@H]2NC(=O)N[C@@H]21)C(=O)N[C@@H](Cc1ccccc1)C(=O)N[C@@H](Cc1ccc(O)cc1)C(=O)O` [HKFY-2, N6-octanoyl-N2-(Na-(5-((3aS,4S,6aR)-2-oxohexahydro-1H-thieno[3,4-d]imidazol-4-yl)pentanoyl)-Nt-trityl-L-histidyl)-L-lysyl-L-phenylalanyl-L-tyrosine] (Biotin-[His(Trt)]K(Octanoyl)FY-OH), which “ECmax (−fold induction over basal)” value is on record?
A: The value was 15 ± 1.87 fold induction over basal.

Q: With `CCCCCCCC(=O)NCCCC[C@H](NC(=O)[C@@H](N)Cc1cn(C(c2ccccc2)(c2ccccc2)c2ccccc2)cn1)C(=O)N[C@@H](Cc1ccccc1)C(=O)N[C@@H](CO)C(=O)O` [HKFY-50, N6-octanoyl-N2-(Nt-trityl-L-histidyl)-L-lysyl-L-phenylalanyl-L-serine] (H-[His(Trt)]K(Octanoyl)FS-OH) as the molecule, how does the “ECmax (−fold induction over basal)” value read?
A: Its value is 16.2 ± 1.5 fold induction over basal.

Q: Which “ECmax (−fold induction over basal)” value does the source give for `CCCCCCCC(=O)NCCCC[C@H](NC(=O)[C@@H](N)Cc1cn(C(c2ccccc2)(c2ccccc2)c2ccc(C)cc2)cn1)C(=O)N[C@@H](Cc1ccccc1)C(=O)N[C@@H](Cc1ccc(O)cc1)C(=O)O` [HKFY-5, N2-(Nt-(diphenyl(p-tolyl)methyl)-L-histidyl)-N6-octanoyl-L-lysyl-L-phenylalanyl-L-tyrosine] here?
A: Its value is 16 ± 1.7 fold induction over basal.

Q: How did the “ECmax (−fold induction over basal)” value turn out when `CCCCCCCC(=O)NCCCC[C@H](NC(=O)[C@@H](N)Cc1cn(C(c2ccccc2)(c2ccccc2)c2ccccc2)cn1)C(=O)N[C@@H](CC(C)C)C(=O)N[C@@H](Cc1ccc(O)cc1)C(=O)O` [HKFY-51, N6-octanoyl-N2-(Nt-trityl-L-histidyl)-L-lysyl-L-leucyl-L-tyrosine] (H-[His(Trt)]K(Octanoyl)LY-OH) was run?
A: Its value is 14.4 ± 1.9 fold induction over basal.

Q: `CCCCCCCC(=O)NCCCC[C@H](NC(=O)[C@@H](N)Cc1cn(CCC(c2ccccc2)c2ccccc2)cn1)C(=O)N[C@@H](Cc1ccccc1)C(=O)N[C@@H](Cc1ccc(O)cc1)C(=O)O` [HKFY-17] was tested. Which “ECmax (−fold induction over basal)” value did it give?
A: Its value is 20 ± 0.57 fold induction over basal.

Q: For `CCCCCCCC(=O)NCCCC[C@H](NC(=O)[C@@H](N)Cc1cn(C(c2ccccc2)(c2ccccc2)c2ccccc2)cn1)C(=O)N[C@H](Cc1ccc(C(F)(F)F)cc1)C(=O)N[C@@H](Cc1ccc(O)cc1)C(=O)O` [HKFY-76, ((R)-2-((S)-2-((S)-2-amino-3-(1-trityl-1H-imidazol-4-yl)propanamido)-6-octanamidohexanamido)-3-(4-(trifluoromethyl)phenyl)propanoyl)-L-tyrosine] (H-[His(Trt)]K(Octanoyl)[dPhe(4-CF3)]Y-OH), which “ECmax (−fold induction over basal)” value is on record?
A: Its value is 14.2 ± 3.75 fold induction over basal.

Q: How did the “ECmax (−fold induction over basal)” value turn out when `CCCCCCCC(=O)NCCCC[C@H](NC(=O)[C@H](Cc1cn(C(c2ccccc2)(c2ccccc2)c2ccccc2)cn1)NC(=O)[C@H](CO)NC(=O)CN)C(=O)N[C@@H](Cc1ccccc1)C(=O)N[C@@H](Cc1ccc(O)cc1)C(=O)O` [HKFY-37, N2-(Na-glycyl-L-seryl-Nt-trityl-L-histidyl)-N6-octanoyl-L-lysyl-L-phenylalanyl-L-tyrosine] (H-GS[His(Trt)]K(Octanoyl)FY-OH) was run?
A: Its value is 16 ± 1.7 fold induction over basal.

Q: How did the “ECmax (−fold induction over basal)” value turn out when `CCCCCCCC(=O)NCCCC[C@H](NC(=O)[C@@H](N)Cc1cn(C(c2ccccc2)(c2ccccc2)c2ccccc2)cn1)C(=O)N[C@H](Cc1ccc2ccccc2c1)C(=O)N[C@@H](Cc1ccc(O)cc1)C(=O)O` [HKFY-74, ((R)-2-((S)-2-((S)-2-amino-3-(1-trityl-1H-imidazol-4-yl)propanamido)-6-octanamidohexanamido)-3-(naphthalen-2-yl)propanoyl)-L-tyrosine] (H-[His(Trt)]K(Octanoyl)[d2Nal]Y-OH) was run?
A: The value was 18.8 ± 3.2 fold induction over basal.

Q: With `CCCCCCCC(=O)NCCCC[C@H](NC(=O)[C@H](N)Cc1cn(C(c2ccccc2)c2ccccc2)cn1)C(=O)N[C@H](Cc1ccc(C)cc1)C(=O)N[C@@H](Cc1ccc(O)cc1)C(=O)O` [HKFY-62, ((R)-2-((S)-2-((R)-2-amino-3-(1-benzhydryl-1H-imidazol-4-yl)propanamido)-6-octanamidohexanamido)-3-(p-tolyl)propanoyl)-L-tyrosine] as the molecule, how does the “ECmax (−fold induction over basal)” value read?
A: The value was 28.1 ± 2.1 fold induction over basal.

Q: How did the “ECmax (−fold induction over basal)” value turn out when `CCCCCCCC(=O)NCCCC[C@H](NC(=O)[C@@H](N)Cc1cn(C(c2ccccc2)(c2ccccc2)c2ccccc2)cn1)C(=O)N[C@@H](Cc1ccccc1)C(=O)N[C@@H](Cc1ccc(O)cc1)C(=O)O` [HKFY-1, N6-octanoyl-N2-(Nt-trityl-L-histidyl)-L-lysyl-L-phenylalanyl-L-tyrosine] (H-[His(Trt)]K(Octanoyl)FY-OH) was run?
A: Its value is 20.51 ± 0.57 fold induction over basal.

Q: With `CCCCCCCC(=O)NCCCC[C@H](NC(=O)[C@H](N)Cc1cn(C(c2ccccc2)(c2ccccc2)c2ccccc2)cn1)C(=O)N[C@@H](Cc1ccccc1)C(=O)N[C@@H](Cc1ccc(O)cc1)C(=O)O` [HKFY-4, N6-octanoyl-N2-(Nt-trityl-D-histidyl)-L-lysyl-L-phenylalanyl-L-tyrosine] (H-[dHis(Trt)]K(Octanoyl)FY-OH) as the molecule, how does the “ECmax (−fold induction over basal)” value read?
A: Its value is 16.8 ± 1.87 fold induction over basal.
